Test results: ChEMBL document CHEMBL3991601, “The target landscape of clinical kinase drugs” (Science, 2017)
Active and inactive are the calls of the source. For most assays here, no stated cut-off is given here; in the data, actives have a measured Kd and inactives only a lower limit.

What was measured:
[1] = target: Casein kinase I isoform delta (Homo sapiens, UniProt P48730)
[2] = target: TRAF2 and NCK-interacting protein kinase (Homo sapiens, UniProt Q9UKE5)
[3] = target: Serine/threonine-protein kinase B-raf (Homo sapiens, UniProt P15056)
[4] = target: Tyrosine-protein kinase Yes (Homo sapiens, UniProt P07947)
Tyrosine-protein kinase Yes, sequence (P07947 whole entry): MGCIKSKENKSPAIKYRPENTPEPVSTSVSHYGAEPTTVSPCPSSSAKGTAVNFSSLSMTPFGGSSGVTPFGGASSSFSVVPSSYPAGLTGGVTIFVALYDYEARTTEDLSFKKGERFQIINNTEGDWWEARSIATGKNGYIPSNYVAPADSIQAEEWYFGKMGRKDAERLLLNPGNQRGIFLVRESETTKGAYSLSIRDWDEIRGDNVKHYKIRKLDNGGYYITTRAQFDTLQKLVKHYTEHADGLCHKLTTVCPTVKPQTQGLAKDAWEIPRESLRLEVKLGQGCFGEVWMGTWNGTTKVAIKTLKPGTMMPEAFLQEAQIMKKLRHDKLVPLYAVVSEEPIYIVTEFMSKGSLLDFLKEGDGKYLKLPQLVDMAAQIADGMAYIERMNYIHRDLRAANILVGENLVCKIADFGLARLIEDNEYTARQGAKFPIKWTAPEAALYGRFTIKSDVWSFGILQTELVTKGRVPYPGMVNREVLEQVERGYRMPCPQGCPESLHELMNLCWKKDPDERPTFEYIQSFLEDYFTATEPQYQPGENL

[5] = target: Citron Rho-interacting kinase (Homo sapiens, UniProt O14578)
Citron Rho-interacting kinase, sequence (O14578 whole entry): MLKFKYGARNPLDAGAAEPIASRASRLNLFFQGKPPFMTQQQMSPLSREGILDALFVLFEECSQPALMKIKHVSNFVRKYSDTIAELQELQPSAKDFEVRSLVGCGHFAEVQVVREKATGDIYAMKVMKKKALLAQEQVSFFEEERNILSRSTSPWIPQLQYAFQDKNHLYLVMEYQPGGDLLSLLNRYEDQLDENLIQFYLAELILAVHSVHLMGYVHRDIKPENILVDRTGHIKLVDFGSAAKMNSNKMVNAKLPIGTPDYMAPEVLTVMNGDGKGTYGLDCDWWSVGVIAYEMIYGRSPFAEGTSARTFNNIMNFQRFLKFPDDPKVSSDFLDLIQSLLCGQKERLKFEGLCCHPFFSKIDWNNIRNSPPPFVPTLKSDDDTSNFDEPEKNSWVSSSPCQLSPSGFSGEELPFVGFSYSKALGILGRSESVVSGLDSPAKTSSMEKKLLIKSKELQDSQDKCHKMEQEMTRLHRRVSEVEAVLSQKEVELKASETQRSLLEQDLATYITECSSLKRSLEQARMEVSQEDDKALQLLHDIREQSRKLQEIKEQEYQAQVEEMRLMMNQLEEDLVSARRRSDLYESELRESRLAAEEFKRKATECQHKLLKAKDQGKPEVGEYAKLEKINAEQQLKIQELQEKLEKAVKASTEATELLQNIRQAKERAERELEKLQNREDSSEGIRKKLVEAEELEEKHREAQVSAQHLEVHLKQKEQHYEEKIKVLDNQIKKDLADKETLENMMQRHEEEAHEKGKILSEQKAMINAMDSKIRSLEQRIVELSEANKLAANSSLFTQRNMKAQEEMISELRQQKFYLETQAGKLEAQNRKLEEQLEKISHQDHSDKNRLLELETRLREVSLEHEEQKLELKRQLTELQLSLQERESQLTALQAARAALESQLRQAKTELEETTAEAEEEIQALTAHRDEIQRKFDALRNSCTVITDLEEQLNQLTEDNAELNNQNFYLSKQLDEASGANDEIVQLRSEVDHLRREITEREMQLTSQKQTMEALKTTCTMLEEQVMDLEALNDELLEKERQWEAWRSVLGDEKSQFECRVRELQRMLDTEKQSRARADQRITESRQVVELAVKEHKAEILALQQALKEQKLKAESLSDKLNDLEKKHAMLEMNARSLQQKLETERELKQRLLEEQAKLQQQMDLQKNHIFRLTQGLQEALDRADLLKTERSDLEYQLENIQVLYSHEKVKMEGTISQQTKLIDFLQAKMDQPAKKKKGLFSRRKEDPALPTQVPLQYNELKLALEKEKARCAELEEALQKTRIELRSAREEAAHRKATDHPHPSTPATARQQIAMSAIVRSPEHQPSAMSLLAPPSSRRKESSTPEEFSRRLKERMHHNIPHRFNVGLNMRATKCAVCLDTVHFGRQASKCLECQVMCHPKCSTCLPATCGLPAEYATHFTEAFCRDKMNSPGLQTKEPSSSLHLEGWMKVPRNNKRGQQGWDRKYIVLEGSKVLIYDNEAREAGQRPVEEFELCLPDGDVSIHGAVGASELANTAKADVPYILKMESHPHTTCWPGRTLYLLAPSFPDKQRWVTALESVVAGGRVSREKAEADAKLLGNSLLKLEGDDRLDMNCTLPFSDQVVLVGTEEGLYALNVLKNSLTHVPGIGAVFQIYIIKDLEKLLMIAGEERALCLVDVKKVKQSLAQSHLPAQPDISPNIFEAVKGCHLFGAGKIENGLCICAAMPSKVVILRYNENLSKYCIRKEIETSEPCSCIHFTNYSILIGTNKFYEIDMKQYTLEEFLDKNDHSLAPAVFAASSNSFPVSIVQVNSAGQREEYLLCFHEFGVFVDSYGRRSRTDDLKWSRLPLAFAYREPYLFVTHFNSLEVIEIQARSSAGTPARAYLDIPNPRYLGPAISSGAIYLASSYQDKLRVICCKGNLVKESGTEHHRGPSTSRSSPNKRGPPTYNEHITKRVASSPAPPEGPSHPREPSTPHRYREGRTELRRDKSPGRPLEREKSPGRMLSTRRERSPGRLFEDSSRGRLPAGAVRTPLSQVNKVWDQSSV

[6] = target: MAP/microtubule affinity-regulating kinase 3 (Homo sapiens, UniProt P27448)
MAP/microtubule affinity-regulating kinase 3, sequence (P27448 whole entry): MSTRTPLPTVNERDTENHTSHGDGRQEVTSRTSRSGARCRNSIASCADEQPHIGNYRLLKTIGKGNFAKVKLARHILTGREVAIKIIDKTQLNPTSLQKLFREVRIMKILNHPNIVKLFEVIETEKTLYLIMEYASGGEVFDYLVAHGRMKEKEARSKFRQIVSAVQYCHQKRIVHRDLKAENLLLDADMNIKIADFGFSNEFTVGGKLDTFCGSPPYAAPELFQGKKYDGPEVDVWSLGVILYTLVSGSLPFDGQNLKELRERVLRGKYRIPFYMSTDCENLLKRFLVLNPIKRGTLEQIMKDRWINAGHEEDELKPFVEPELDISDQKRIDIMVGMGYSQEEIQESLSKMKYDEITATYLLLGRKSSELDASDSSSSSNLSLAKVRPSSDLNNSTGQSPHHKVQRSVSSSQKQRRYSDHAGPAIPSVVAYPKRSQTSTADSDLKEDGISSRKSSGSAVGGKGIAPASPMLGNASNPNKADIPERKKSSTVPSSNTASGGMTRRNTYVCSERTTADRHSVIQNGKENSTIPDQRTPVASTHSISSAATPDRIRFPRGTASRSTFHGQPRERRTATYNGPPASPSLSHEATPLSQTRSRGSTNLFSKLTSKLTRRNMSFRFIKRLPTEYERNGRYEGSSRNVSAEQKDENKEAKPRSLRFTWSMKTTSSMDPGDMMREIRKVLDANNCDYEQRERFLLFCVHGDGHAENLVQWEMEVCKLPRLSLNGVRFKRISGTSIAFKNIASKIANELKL

[7] = target: T1, Serine/threonine-protein kinase Nek9 (Homo sapiens, UniProt Q8TD19)
T1 sequence (Q8TD19 whole entry): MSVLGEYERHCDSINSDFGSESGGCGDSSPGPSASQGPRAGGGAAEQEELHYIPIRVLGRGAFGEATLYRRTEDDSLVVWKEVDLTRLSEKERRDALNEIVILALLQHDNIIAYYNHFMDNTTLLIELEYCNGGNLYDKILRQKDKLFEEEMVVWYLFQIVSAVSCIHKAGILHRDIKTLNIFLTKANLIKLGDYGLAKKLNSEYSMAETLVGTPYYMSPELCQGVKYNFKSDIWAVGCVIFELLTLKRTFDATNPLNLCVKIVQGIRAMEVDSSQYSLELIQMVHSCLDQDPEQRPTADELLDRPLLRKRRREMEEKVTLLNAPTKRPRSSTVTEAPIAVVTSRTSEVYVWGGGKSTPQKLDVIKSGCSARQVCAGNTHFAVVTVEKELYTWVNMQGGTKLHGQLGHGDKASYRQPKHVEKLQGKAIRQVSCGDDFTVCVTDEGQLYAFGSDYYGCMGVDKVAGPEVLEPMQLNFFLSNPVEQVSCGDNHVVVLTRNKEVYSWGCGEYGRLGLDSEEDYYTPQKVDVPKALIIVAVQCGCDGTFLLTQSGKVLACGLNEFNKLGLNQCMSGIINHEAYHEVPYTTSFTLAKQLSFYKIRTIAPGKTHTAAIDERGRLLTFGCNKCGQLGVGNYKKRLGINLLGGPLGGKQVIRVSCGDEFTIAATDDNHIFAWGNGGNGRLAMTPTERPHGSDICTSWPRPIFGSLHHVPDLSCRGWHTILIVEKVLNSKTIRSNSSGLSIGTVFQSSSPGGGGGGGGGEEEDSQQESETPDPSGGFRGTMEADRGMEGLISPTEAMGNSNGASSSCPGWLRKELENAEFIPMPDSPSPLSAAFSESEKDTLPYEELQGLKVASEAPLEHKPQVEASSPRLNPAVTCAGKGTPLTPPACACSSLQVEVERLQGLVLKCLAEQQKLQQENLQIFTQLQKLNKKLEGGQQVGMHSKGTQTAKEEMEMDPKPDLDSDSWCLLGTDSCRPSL

[8] = target: Cyclin-dependent kinase 12 (Homo sapiens, UniProt Q9NYV4)
[9] = target: GTP-binding nuclear protein Ran (Homo sapiens, UniProt P62826)
[10] = target: RAC-gamma serine/threonine-protein kinase (Homo sapiens, UniProt Q9Y243)
[11] = target: Inosine-5'-monophosphate dehydrogenase 2 (Homo sapiens, UniProt P12268)
[12] = target: T2, Serine/threonine-protein kinase D3 (Homo sapiens, UniProt O94806)
T2 sequence (O94806 whole entry): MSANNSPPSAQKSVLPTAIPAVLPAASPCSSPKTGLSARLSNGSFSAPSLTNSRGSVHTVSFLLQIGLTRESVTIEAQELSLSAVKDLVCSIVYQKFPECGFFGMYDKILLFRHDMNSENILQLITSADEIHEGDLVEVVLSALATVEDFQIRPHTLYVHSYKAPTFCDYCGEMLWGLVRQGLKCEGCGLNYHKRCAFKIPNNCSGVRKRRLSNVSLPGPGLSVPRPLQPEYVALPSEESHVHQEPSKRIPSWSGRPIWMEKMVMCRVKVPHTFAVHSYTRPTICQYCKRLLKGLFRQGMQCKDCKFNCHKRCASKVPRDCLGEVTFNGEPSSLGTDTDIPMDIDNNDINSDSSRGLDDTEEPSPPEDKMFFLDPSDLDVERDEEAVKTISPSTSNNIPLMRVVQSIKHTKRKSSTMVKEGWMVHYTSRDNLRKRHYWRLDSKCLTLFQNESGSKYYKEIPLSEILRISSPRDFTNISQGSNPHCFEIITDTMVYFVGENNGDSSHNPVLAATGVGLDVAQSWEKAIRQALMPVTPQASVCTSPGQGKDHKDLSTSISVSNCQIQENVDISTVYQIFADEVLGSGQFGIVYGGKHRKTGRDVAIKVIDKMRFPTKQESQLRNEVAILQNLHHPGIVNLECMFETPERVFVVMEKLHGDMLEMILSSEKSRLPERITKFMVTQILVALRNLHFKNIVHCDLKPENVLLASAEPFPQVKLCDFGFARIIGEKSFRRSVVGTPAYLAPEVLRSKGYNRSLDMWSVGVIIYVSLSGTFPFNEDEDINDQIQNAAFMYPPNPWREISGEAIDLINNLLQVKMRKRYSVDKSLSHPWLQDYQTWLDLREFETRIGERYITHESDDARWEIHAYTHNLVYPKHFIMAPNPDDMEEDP

Ephrin type-A receptor 7 = Ephrin type-A receptor 7 (Homo sapiens, UniProt Q15375)
[13] = target: T3, Delta(24)-sterol reductase (Homo sapiens, UniProt Q15392)
T3 sequence (Q15392 whole entry): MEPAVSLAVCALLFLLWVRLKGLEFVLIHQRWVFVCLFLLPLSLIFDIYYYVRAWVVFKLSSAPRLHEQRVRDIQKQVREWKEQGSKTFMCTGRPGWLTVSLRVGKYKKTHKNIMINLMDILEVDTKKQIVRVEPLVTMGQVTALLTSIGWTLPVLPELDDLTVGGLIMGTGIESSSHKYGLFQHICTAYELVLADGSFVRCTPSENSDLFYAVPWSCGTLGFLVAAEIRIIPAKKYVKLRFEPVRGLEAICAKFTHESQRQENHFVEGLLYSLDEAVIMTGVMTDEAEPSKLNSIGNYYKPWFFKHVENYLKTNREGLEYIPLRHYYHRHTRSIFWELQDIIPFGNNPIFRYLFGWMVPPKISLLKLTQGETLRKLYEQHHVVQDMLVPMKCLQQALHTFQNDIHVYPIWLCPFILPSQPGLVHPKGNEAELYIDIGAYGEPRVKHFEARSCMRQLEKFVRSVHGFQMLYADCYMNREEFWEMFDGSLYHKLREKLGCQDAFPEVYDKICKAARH

TRAF2 and NCK-interacting protein kinase, sequence (Q9UKE5 whole entry): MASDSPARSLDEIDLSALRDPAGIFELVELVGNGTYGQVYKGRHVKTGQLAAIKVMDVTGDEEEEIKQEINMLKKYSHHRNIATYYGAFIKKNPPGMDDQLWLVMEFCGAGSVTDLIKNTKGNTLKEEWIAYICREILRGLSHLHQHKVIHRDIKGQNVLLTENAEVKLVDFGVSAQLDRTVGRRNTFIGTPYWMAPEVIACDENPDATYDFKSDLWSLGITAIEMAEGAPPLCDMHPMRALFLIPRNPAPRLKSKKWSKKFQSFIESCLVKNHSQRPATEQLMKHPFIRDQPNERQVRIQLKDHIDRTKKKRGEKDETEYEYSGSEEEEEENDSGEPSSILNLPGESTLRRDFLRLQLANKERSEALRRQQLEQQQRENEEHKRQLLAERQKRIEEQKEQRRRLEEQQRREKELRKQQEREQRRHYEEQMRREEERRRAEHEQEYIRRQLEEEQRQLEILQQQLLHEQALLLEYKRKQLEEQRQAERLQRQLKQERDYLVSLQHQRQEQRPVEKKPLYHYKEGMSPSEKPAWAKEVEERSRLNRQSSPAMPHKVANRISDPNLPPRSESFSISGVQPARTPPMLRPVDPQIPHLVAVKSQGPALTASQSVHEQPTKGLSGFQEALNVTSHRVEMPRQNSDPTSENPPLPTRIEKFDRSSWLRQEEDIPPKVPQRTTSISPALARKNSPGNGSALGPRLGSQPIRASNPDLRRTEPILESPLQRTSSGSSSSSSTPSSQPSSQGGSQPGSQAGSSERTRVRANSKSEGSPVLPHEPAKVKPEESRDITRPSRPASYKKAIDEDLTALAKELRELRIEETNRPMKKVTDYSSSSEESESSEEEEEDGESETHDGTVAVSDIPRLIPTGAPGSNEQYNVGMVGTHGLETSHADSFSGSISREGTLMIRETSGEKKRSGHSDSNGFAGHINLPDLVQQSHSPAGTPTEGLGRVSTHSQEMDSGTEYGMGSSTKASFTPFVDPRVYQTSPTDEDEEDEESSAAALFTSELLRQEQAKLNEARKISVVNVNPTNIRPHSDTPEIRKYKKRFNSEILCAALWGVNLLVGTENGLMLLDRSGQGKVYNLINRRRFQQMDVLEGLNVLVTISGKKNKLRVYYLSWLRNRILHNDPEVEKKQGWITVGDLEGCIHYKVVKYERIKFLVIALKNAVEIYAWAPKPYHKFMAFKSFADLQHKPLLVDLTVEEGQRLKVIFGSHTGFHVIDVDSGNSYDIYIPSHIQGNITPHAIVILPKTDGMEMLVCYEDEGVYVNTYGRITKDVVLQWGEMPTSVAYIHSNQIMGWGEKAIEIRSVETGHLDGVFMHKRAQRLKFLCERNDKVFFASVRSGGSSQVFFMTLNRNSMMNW
Casein kinase I isoform delta, sequence (P48730 whole entry, canonical isoform): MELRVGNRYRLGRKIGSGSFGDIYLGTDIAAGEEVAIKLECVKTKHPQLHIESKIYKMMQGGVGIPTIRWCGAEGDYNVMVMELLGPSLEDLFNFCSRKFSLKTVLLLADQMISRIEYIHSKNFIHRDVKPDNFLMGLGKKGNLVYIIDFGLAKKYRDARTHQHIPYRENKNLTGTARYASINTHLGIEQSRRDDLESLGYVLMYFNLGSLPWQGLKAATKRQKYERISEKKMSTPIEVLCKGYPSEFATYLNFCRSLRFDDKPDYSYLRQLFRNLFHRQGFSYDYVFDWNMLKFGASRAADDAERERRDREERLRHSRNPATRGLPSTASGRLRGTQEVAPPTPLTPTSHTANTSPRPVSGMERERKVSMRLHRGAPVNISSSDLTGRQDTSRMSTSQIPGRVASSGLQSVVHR

SMILES	Kd [1]	Kd [2]	Kd [3]	Kd [4]	Kd [5]	Kd [6]	Kd [7]	Kd [8]	Kd [9]	Kd [10]	Kd [11]	Kd [12]	Kd (Ephrin type-A receptor 7)	Kd [13]
C=CC(=O)Nc1cc(Nc2nccc(-c3cn(C)c4ccccc34)n2)c(OC)cc1N(C)CCN(C)C [OSIMERTINIB]	> 30 µM (inactive)	> 30 µM (inactive)	> 30 µM (inactive)	> 30 µM (inactive)	> 30 µM (inactive)	> 30 µM (inactive)	> 30 µM (inactive)	> 30 µM (inactive)	> 30 µM (inactive)	> 30 µM (inactive)	> 30 µM (inactive)	> 30 µM (inactive)	> 30 µM (inactive)	> 30 µM (inactive)
FC(F)(F)c1ccc(CNc2ccc(Cc3c[nH]c4ncc(Cl)cc34)cn2)cn1 [PEXIDARTINIB]	> 30 µM (inactive)	> 30 µM (inactive)	> 30 µM (inactive)	> 30 µM (inactive)	> 30 µM (inactive)	> 30 µM (inactive)	> 30 µM (inactive)	> 30 µM (inactive)	> 30 µM (inactive)	> 30 µM (inactive)	> 30 µM (inactive)	> 30 µM (inactive)	> 30 µM (inactive)	> 30 µM (inactive)
COc1ccc2c(OCc3nnc4ccc(-c5ccccc5)nn34)ccnc2c1 [AMG-208]	> 30 µM (inactive)	> 30 µM (inactive)	> 30 µM (inactive)	> 30 µM (inactive)	> 30 µM (inactive)	> 30 µM (inactive)	> 30 µM (inactive)	> 30 µM (inactive)	> 30 µM (inactive)	> 30 µM (inactive)	> 30 µM (inactive)	> 30 µM (inactive)	> 30 µM (inactive)	> 30 µM (inactive)
CC1(COc2ccc3c(c2)ncn3-c2ccc3cccc(N4CCC(N)CC4)c3n2)COC1 [CRENOLANIB]	> 30 µM (inactive)	0.107 µM	> 30 µM (inactive)	> 30 µM (inactive)	> 30 µM (inactive)	0.22 µM (active)	> 30 µM (inactive)	> 30 µM (inactive)	> 30 µM (inactive)	> 30 µM (inactive)	> 30 µM (inactive)	14.8 µM (active)	> 30 µM (inactive)	> 30 µM (inactive)
COc1cccc2cc(-c3nc([C@H]4CC[C@H](C(=O)O)CC4)n4ncnc(N)c34)[nH]c12 [OSI-027]	> 30 µM (inactive)	> 30 µM (inactive)	> 30 µM (inactive)	> 30 µM (inactive)	> 30 µM (inactive)	> 30 µM (inactive)	> 30 µM (inactive)	> 30 µM (inactive)	> 30 µM (inactive)	> 30 µM (inactive)	> 30 µM (inactive)	> 30 µM (inactive)	> 30 µM (inactive)	> 30 µM (inactive)
c1cc(OCCN2CCCCC2)cc(-c2n[nH]c3ccc(-c4nc[nH]n4)cc23)c1 [CC-401]	0.287 µM (active)	2.34 µM (active)	> 30 µM (inactive)	> 30 µM (inactive)	> 30 µM (inactive)	> 30 µM (inactive)	> 30 µM (inactive)	> 30 µM (inactive)	> 30 µM (inactive)	> 30 µM (inactive)	> 30 µM (inactive)	0.09 µM (active)	> 30 µM (inactive)	> 30 µM (inactive)
O=c1[nH]c([C@@H]2CCCN2)nc2c1oc1ccc(Cl)cc12	> 30 µM (inactive)	> 30 µM (inactive)	> 30 µM (inactive)	> 30 µM (inactive)	3.66 µM (active)	> 30 µM (inactive)	> 30 µM (inactive)	> 30 µM (inactive)	> 30 µM (inactive)	> 30 µM (inactive)	> 30 µM (inactive)	> 30 µM (inactive)	> 30 µM (inactive)	> 30 µM (inactive)
